Source: BindingDB's records for doi:10.1210/edrv-16-4-427 (University of Pennsylvania, 1995)
Peptide text beside a SMILES is read from it.

How the values were obtained:
[1] = molecular target: Somatostatin receptor type 3 (Homo sapiens, UniProt P32745)
[2] = molecular target: Somatostatin receptor type 2 (Homo sapiens, UniProt P30874)
[3] = molecular target: Somatostatin receptor type 4 (Homo sapiens, UniProt P31391)
Somatostatin receptor type 4, sequence (P31391 whole entry): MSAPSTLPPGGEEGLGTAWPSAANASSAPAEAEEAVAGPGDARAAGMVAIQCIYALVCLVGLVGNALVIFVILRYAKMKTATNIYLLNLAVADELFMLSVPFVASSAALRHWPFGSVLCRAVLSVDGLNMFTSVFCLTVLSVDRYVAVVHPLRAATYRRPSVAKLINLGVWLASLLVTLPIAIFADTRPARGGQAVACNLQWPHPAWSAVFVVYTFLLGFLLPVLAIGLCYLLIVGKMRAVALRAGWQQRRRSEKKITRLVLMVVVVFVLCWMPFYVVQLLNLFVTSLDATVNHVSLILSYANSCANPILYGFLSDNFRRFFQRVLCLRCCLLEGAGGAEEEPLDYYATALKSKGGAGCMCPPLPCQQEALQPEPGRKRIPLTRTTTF

Somatostatin receptor type 3, sequence (P32745 whole entry): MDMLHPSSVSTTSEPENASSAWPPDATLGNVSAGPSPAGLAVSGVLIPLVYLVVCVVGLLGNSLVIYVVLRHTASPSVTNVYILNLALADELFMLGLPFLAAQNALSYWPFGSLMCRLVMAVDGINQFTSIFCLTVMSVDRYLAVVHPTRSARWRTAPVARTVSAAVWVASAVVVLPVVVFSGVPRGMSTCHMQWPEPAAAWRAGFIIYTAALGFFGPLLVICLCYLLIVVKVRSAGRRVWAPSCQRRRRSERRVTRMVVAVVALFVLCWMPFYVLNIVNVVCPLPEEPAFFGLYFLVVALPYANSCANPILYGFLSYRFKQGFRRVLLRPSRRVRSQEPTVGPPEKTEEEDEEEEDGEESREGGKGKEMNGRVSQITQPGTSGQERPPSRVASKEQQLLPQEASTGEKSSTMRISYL
Somatostatin receptor type 2, sequence (P30874 whole entry): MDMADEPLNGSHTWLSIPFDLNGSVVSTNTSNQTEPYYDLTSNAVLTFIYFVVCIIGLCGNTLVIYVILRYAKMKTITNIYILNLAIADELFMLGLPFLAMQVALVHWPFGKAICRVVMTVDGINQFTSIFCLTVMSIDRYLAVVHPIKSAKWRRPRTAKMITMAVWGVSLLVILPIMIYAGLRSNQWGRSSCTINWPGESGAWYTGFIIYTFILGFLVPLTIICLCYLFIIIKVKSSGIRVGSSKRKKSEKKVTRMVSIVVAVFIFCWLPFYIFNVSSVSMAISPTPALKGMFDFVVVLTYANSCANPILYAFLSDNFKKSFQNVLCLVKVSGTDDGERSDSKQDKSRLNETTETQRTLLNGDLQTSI

Ki [1] | Ki [2] | Ki [3] | Structure (SMILES)
268 nM | – | – | CC(C)[C@@H]1NC(=O)[C@H](CCCCN)NC(=O)[C@@H](Cc2c[nH]c3ccccc23)NC(=O)[C@H](Cc2ccc(O)cc2)NC(=O)[C@H](C)N(C)C(=O)[C@H](Cc2ccccc2)NC1=O [CAS_3086456]
0.6 nM | 1 nM | 4.7 nM | C[C@@H](O)[C@@H]1NC(=O)[C@H](Cc2ccc(O)cc2)NC(=O)[C@H]([C@@H](C)O)NC(=O)[C@H](CCCCN)NC(=O)[C@H](Cc2c[nH]c3ccccc23)NC(=O)[C@H](Cc2ccccc2)NC(=O)[C@H](Cc2ccccc2)NC(=O)[C@H](CC(N)=O)NC(=O)[C@H](CCCCN)NC(=O)CCCCC[C@@H](C(=O)O)NC(=O)[C@H](CO)NC1=O [CGP-23996] (HELM PEPTIDE1{K.N.F.F.W.K.T.Y.T.S.[O=C(O)[C@H](CCCCCC(=O)[*:3])N[*:1]]}$PEPTIDE1,PEPTIDE1,1:R1-11:R3$$$V2.0)
